US20230363424A1, “COMPOUNDS AND METHODS FOR ENHANCING SWEETNESS OF SWEETENERS” (Conagen Inc., priority 2021, published 2023)

What was measured:
Type in all cases: in vivo, human
[1] = test system: taste panelists; assay: Inherent sweetness, two-alternative forced choice sip and spit (2AFC) vs 1.5% sucrose control; conditions: control 1.5% sucrose, n=30
Description: The inherent sweetness of Compounds (1), (2), and (3) as perceived by human subjects was evaluated using a two-alternative forced choice “sip and spit” method (2AFC). The 2AFC test used for compound evaluation was a double-blinded and randomized test where taste panelists (n=30) evaluated a pair of sweetener solutions at a time—one sample is a 1.5% sucrose control, while the other is an aqueous solution containing a test compound at the indicated concentration. Panelists were instructed not to eat or drink (except water) for at least 1 hour before the test. During the test panelists were instructed to sip each sample, swirl it around their mouth and then expectorate. […] Panelists cleansed their palates by rinsing with water, eating a cracker and waiting for an interval of about 5 minutes. All samples were tested at ambient temperatures.

[2] = test system: taste panelists; assay: Sweetness enhancing effect with rebaudioside M, 2AFC sip and spit test; conditions: control 100 ppm Reb M solution, n=30
Description: (§1) The sweetness enhancing effect of Compounds (1), (2), and (3) when used with certain sweeteners (specifically, sucrose or rebaudioside M) was evaluated using a two-alternative forced choice “sip and spit” method (2AFC). The 2AFC test used for compound evaluation was a double-blinded and randomized test where taste panelists (n=30) evaluated a pair of sweetener solutions at a time—one sample contains aqueous sweetener solution plus compound (test sample), while the other contains the aqueous sweetener solution without compound (control). Each test sample was compared against a positive control. For example, if the test sample contained 5% sucrose solution with Compound (1), the positive control contained a 5% sucrose solution (i.e., without Compound (1)). Panelists were instructed not to eat or drink (except water) for at least 1 hour before the test. During the test panelists were instructed to sip each sample, swirl it around their mouth and then expectorate. After tasting each sample in the pair, panelists were instructed to record the sample that is “sweeter” in taste. Panelists cleansed their palates by rinsing with water, eating a cracker and waiting for an interval of about 5 minutes. All samples were tested at ambient temperatures.

[3] = test system: taste panelists; assay: Sweetness enhancing effect with sucrose, 2AFC sip and spit test; conditions: control 5% sucrose solution, n=30
Description: as §1

[4] = compound 20 ppm in aqueous solution
[5] = compound 50 ppm in aqueous solution
[6] = compound 80 ppm in aqueous solution
[7] = compound 20 ppm in 100 ppm Reb M solution

SMILES: Cc1cc(O)c2c(c1)OC(=O)CC2c1ccc(O)c(O)c1 (stereo not drawn) [Compound (1), 4-(3,4-dihydroxyphenyl)-5-hydroxy-7-methylchroman-2-one]
- panelists who chose Sample as comparable in sweetness to Control [1, 4]: 1 of 30 panelists chose Sample as
- panelists who chose Sample as comparable in sweetness to Control [1, 5]: 2 of 30 panelists chose Sample as
- panelists who chose Sample as comparable in sweetness to Control [1, 6]: 2 of 30 panelists chose Sample as
- panelists who chose Sample as sweeter than Control [2, 7]: 29 of 30 panelists
- panelists who chose Test Sample as sweeter than Control ([3]; compound 60 ppm in 5% sucrose solution): 21 of 30 panelists

SMILES: COc1cc(C2CC(=O)Oc3cccc(O)c32)ccc1O (stereo not drawn) [Compound (3), 5-hydroxy-4-(4-hydroxy-3-methoxyphenyl)chroman-2-one]
- panelists who chose Sample as comparable in sweetness to Control [1, 4]: 2 of 30 panelists chose Sample as
- panelists who chose Sample as comparable in sweetness to Control [1, 5]: 2 of 30 panelists chose Sample as
- panelists who chose Sample as comparable in sweetness to Control [1, 6]: 1 of 30 panelists chose Sample as
- panelists who chose Sample as sweeter than Control ([2]; compound 40 ppm in 100 ppm Reb M solution): 20 of 30 panelists
- panelists who chose Sample as sweeter than Control ([3]; compound 20 ppm in 5% sucrose solution): 28 of 30 panelists

SMILES: COc1cc(C2CC(=O)Oc3ccc(O)c(C)c32)ccc1O (stereo not drawn) [Compound (2), 6-hydroxy-4-(4-hydroxy-3-methoxyphenyl)-5-methylchroman-2-one]
- panelists who chose Sample as comparable in sweetness to Control [1, 4]: 1 of 30 panelists chose Sample as
- panelists who chose Sample as comparable in sweetness to Control [1, 5]: 1 of 30 panelists chose Sample as
- panelists who chose Sample as comparable in sweetness to Control [1, 6]: 1 of 30 panelists chose Sample as
- panelists who chose Sample as sweeter than Control [2, 7]: 30 of 30 panelists
- panelists who chose Sample as sweeter than Control ([3]; compound 40 ppm in 5% sucrose solution): 29 of 30 panelists
